Where “and” joins values, the source holds several entries; their conditions need not be identical. Equal entries are not always repeated. Inconclusive results and toxic doses are left out.
Tested on: L1210 leukemia ip in BDF1 mice, survival T/C
Experiment: NCI In Vivo Anticancer Drug Screen. Data for tumor model L1210 Leukemia (intraperitoneal) in B6D2F1 (BDF1) mice
Details: endpoint: mean survival time, higher = longer survival
Summary of the method: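 Each compound was tested against a transplantable tumor grown in mice. The endpoint was survival, with treated animals benchmarked against vehicle controls as a simple ratio.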

[1] = dose: 100.0 mg/kg/injection, schedule: Q01DX009 (ip), vehicle: saline with Tween-80
[2] = dose: 200.0 mg/kg/injection, schedule: Q01DX009 (ip), vehicle: saline with Tween-80

## Clc1ncnc2nc[nH]c12
dose: 7.5 mg/kg/injection, schedule: Q01DX010 (ip), vehicle: saline
  T/C: 93 % of control and 96 % of control
dose: 9.37 mg/kg/injection, schedule: Q03HX008 (ip), vehicle: other
  T/C: 103 % of control
dose: 9.37 mg/kg/injection, schedule: Q03HX016 (ip), vehicle: other
  T/C: 102 % of control
dose: 9.37 mg/kg/injection, schedule: Q03HX024 (ip), vehicle: other
  T/C: 112 % of control
dose: 12.5 mg/kg/injection, schedule: Q03HX016 (ip), vehicle: other
  T/C: 105 % of control
dose: 12.5 mg/kg/injection, schedule: Q03HX024 (ip), vehicle: other
  T/C: 104 % of control
dose: 15.0 mg/kg/injection, schedule: Q01DX010 (ip), vehicle: saline
  T/C: 93 % of control and 105 % of control
dose: 18.75 mg/kg/injection, schedule: Q03HX008 (ip), vehicle: other
  T/C: 111 % of control
dose: 18.75 mg/kg/injection, schedule: Q03HX016 (ip), vehicle: other
  T/C: 113 % of control
dose: 18.75 mg/kg/injection, schedule: Q03HX024 (ip), vehicle: other
  T/C: 110 % of control
dose: 25.0 mg/kg/injection, schedule: Q01DX006 (iv), vehicle: other
  T/C: 108 % of control
dose: 25.0 mg/kg/injection, schedule: Q03HX016 (ip), vehicle: other
  T/C: 112 % of control
dose: 25.0 mg/kg/injection, schedule: Q03HX024 (ip), vehicle: other
  T/C: 114 % of control
dose: 30.0 mg/kg/injection, schedule: Q01DX010 (ip), vehicle: saline
  T/C: 104 % of control and 107 % of control
dose: 37.5 mg/kg/injection, schedule: Q03HX024 (ip), vehicle: other
  T/C: 160 % of control
dose: 50.0 mg/kg/injection, schedule: Q01DX001 (iv), vehicle: other
  T/C: 98 % of control
dose: 50.0 mg/kg/injection, schedule: Q01DX005 (ip), vehicle: other
  T/C: 103 % of control
dose: 50.0 mg/kg/injection, schedule: Q01DX006 (iv), vehicle: other
  T/C: 108 % of control
dose: 50.0 mg/kg/injection, schedule: Q01DX009 (ip), vehicle: other
  T/C: 106 % of control and 109 % of control
dose: 50.0 mg/kg/injection, schedule: Q01DX009 (oral), vehicle: other
  T/C: 112 % of control
dose: 50.0 mg/kg/injection, schedule: Q01DX009 (sc), vehicle: other
  T/C: 114 % of control
dose: 50.0 mg/kg/injection, schedule: Q01DX Z (ip), vehicle: carboxymethylcellulose (CMC)
  T/C: 110 % of control
dose: 60.0 mg/kg/injection, schedule: Q01DX010 (ip), vehicle: saline
  T/C: 101 % of control and 103 % of control
dose: 75.0 mg/kg/injection, schedule: Q01DX001 (sc), vehicle: other
  T/C: 106 % of control
dose: 75.0 mg/kg/injection, schedule: Q03HX016 (ip), vehicle: other
  T/C: 163 % of control
dose: 75.0 mg/kg/injection, schedule: Q03HX024 (ip), vehicle: other
  T/C: 189 % of control
dose: 75.0 mg/kg/injection, schedule: Q04DX003 (ip), vehicle: other
  T/C: 106 % of control
dose: 75.0 mg/kg/injection, schedule: Q08DX002 (ip), vehicle: other
  T/C: 103 % of control
dose: 100.0 mg/kg/injection, schedule: Q01DX001 (iv), vehicle: other
  T/C: 101 % of control
dose: 100.0 mg/kg/injection, schedule: Q01DX001 (oral), vehicle: other
  T/C: 103 % of control
dose: 100.0 mg/kg/injection, schedule: Q01DX005 (ip), vehicle: other
  T/C: 118 % of control
dose: 100.0 mg/kg/injection, schedule: Q01DX006 (iv), vehicle: other
  T/C: 113 % of control
dose: 100.0 mg/kg/injection, schedule: Q01DX009 (ip), vehicle: other
  T/C: 121 % of control
dose: 100.0 mg/kg/injection, schedule: Q01DX Z (ip), vehicle: carboxymethylcellulose (CMC)
  T/C: 156 % of control
dose: 100.0 mg/kg/injection, schedule: Q03HX016 (ip), vehicle: other
  T/C: 163 % of control
dose: 100.0 mg/kg/injection, schedule: Q03HX024 (ip), vehicle: other
  T/C: 150 % of control
dose: 100.0 mg/kg/injection, schedule: Q04DX003 (ip), vehicle: other
  T/C: 115 % of control
dose: 100.0 mg/kg/injection, schedule: Q08DX002 (ip), vehicle: other
  T/C: 101 % of control
dose: 146.0 mg/kg/injection, schedule: Q01DX015 (ip), vehicle: gum acacia
  T/C: 152 % of control
dose: 150.0 mg/kg/injection, schedule: Q01DX001 (sc), vehicle: other
  T/C: 113 % of control
dose: 150.0 mg/kg/injection, schedule: Q04DX003 (ip), vehicle: other
  T/C: 114 % of control
dose: 150.0 mg/kg/injection, schedule: Q08DX002 (ip), vehicle: other
  T/C: 104 % of control
dose: 200.0 mg/kg/injection, schedule: Q01DX001 (iv), vehicle: other
  T/C: 106 % of control
dose: 200.0 mg/kg/injection, schedule: Q01DX001 (oral), vehicle: other
  T/C: 110 % of control
dose: 200.0 mg/kg/injection, schedule: Q01DX009 (oral), vehicle: other
  T/C: 152 % of control and 160 % of control
dose: 200.0 mg/kg/injection, schedule: Q04DX003 (ip), vehicle: other
  T/C: 109 % of control
dose: 200.0 mg/kg/injection, schedule: Q08DX002 (ip), vehicle: other
  T/C: 105 % of control
dose: 218.0 mg/kg/injection, schedule: Q01DX015 (ip), vehicle: gum acacia
  T/C: 150 % of control
dose: 300.0 mg/kg/injection, schedule: Q01DX001 (sc), vehicle: other
  T/C: 113 % of control
dose: 300.0 mg/kg/injection, schedule: Q04DX003 (ip), vehicle: other
  T/C: 113 % of control
dose: 300.0 mg/kg/injection, schedule: Q08DX002 (ip), vehicle: other
  T/C: 105 % of control
dose: 327.0 mg/kg/injection, schedule: Q01DX015 (ip), vehicle: gum acacia
  T/C: 152 % of control
dose: 360.0 mg/kg/injection, schedule: Q01DX015 (ip), vehicle: gum acacia
  T/C: 110 % of control
dose: 400.0 mg/kg/injection, schedule: Q01DX009 (oral), vehicle: other
  T/C: 158 % of control
dose: 400.0 mg/kg/injection, schedule: Q01DX015 (ip), vehicle: other
  T/C: 105 % of control
dose: 400.0 mg/kg/injection, schedule: Q04DX003 (ip), vehicle: other
  T/C: 115 % of control
dose: 400.0 mg/kg/injection, schedule: Q08DX002 (ip), vehicle: other
  T/C: 103 % of control
dose: 490.0 mg/kg/injection, schedule: Q01DX015 (ip), vehicle: gum acacia
  T/C: 90 % of control
dose: 800.0 mg/kg/injection, schedule: Q04DX003 (ip), vehicle: other
  T/C: 114 % of control

## CC1C(C)(C)P(N)(=O)C1(C)C (stereo not given)
dose: 100.0 mg/kg/injection, schedule: Q04DX003 (ip), vehicle: saline
  T/C: 100 % of control
dose: 200.0 mg/kg/injection, schedule: Q04DX003 (ip), vehicle: saline
  T/C: 103 % of control
dose: 400.0 mg/kg/injection, schedule: Q04DX003 (ip), vehicle: saline
  T/C: 97 % of control

## O=[N+]([O-])CC(OCCCc1ccccc1)C(Cl)(Cl)Cl (stereo not given)
[1]
  T/C: 107 % of control
dose: 100.0 mg/kg/injection, schedule: Q04DX003 (ip), vehicle: saline with Tween-80
  T/C: 93 % of control
[2]
  T/C: 109 % of control
dose: 200.0 mg/kg/injection, schedule: Q04DX003 (ip), vehicle: saline with Tween-80
  T/C: 104 % of control
dose: 400.0 mg/kg/injection, schedule: Q04DX003 (ip), vehicle: saline with Tween-80
  T/C: 91 % of control

## OC/C=C/c1cccs1
dose: 100.0 mg/kg/injection, schedule: Q04DX002 (ip), vehicle: saline
  T/C: 98 % of control
dose: 200.0 mg/kg/injection, schedule: Q04DX002 (ip), vehicle: saline
  T/C: 95 % of control

## NC(=O)C(N)CCO (stereo not given)
dose: 75.0 mg/kg/injection, schedule: Q04DX003 (ip), vehicle: saline
  T/C: 104 % of control
dose: 150.0 mg/kg/injection, schedule: Q04DX003 (ip), vehicle: saline
  T/C: 104 % of control
dose: 300.0 mg/kg/injection, schedule: Q04DX003 (ip), vehicle: saline
  T/C: 100 % of control

## CCCCC#C/C=C/CCCC
dose: 50.0 mg/kg/injection, schedule: Q01DX009 (ip), vehicle: saline with Tween-80
  T/C: 95 % of control
[1]
  T/C: 100 % of control
[2]
  T/C: 100 % of control
